Experimental data taken from US5230998A, “Method for the prescreening of drugs targeted to the V3 hypervariable loop of the HIV-1 envelope glycoprotein gp 120” (priority 1991, dated 1993).
Values after ≈ are worked out from the molar mass of the structure shown.

Experiments:
[1] = molecular target: T1, HIV-1 gp120 V3 hypervariable loop (Human immunodeficiency virus type 1 group M subtype B, UniProt P03375); test: biochemical; assay type: binding; as to Inhibitory activity: key: Chemicals with inhibitory activity are indicated by +
T1 construct: Polystyrene plates coated with recombinant gp120 and gp160, respectively; purchased American Bio-Technologies, Inc., Cambridge, Mass; host or cells: baculovirus expression system
How it was run: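 Inhibition RIA/ELISA: gp120/gp160-coated or synthetic peptide-coated wells (gp120/gp41 of HIV-1 BH10 and V3 loops of 21 isolates) incubated overnight at 25 °C with rabbit anti-peptide antisera (1:150, or 1:1,000 for V3) ± compound (ATA 50 μg/ml). Bound IgG detected with 125I-anti-rabbit IgG; percent inhibition versus no-compound control.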

HIV-1 = test: Antiviral activity: inhibition of P24 production in MT-2 cells; assay type: cell-based, HIV-1 IIIB
Description: All chemicals were tested at serial two-fold dilutions (1.25-80 μg/ml, prepared from a stock solution containing 10 mg/ml in dimethylsulfoxide). The chemicals were obtained from Aldrich, Milwaukee, Wis. or were synthesized. Their inhibitory activity was determined by two distinct methods, based on inhibition of synthesis of core protein P24 and on protection by the chemicals of cells against the cytopathic effect of HIV-1 (colorimetric method) respectively.
The chemicals were serially diluted in RPMI 1640 medium without phenol red (GIBCO, Grand Island, N.Y.) containing 10% fetal calf serum (FCS). Aliquots of the diluted solutions were added to wells of 96 well plates and mixed with an equal volume of diluted HIV-1 [multiplicity of infection (MOI) =0.0045]. After incubation for 1 hour at 37° C., 25 μl of polybrene (1 μg/ml) treated MT-2 cells (Harada, S., Koyanagi, Y., Yamamoto, N., (1985), "Infection of HTLV-III/LAV in HTLV-I-carrying Cells MT-2 and MT-4 and Application in a Plaque Assay", Science, 229, 563-566), (5,000 cells/well) were added. The mixture was incubated for 1 hour at 37° C. and the volume was adjusted with RPMI 1640 medium with 10% FCS to 200 μl. On the fourth day after incubation at 37° C., 100 μl of culture supernatants were collected from each well and equal volumes of fresh medium were added to the wells. The supernatants were assayed for P24 using a kit from Coulter Immunology (Hialeah, Fla.). On the sixth day, an indicator XTT tetrazolium dye (1 mg/ml; 50 μl/well; PolySciences, Inc., Warrington, Penna.) was added to the cells. After 4 hours, intracellular formazan was determined colorimetrically at 450 nm.
^c Chemicals with inhibitory activity in ELISA (RIA) tests were teste
^d EC50 = concentration at which the production of P24 was […]

H9 cells = test: Toxicity for cells; assay type: cell-based; conditions: at the concentrations used
Source text: (§1) The combined effects of AZT and ATA, and other compounds shown to be effective in Table 1, hereinbelow, against HIV-1 are also contemplated by the present invention, since synergistic drug combinations would offer means for alleviating toxicity due to AZT, observed in clinical settings. Contemplated combinations include, for example, AZT+ATA, AZT+chlorin e6; AZT+deuteroporphyrin IX, 2,4(4,2) hydroxyethyvinyl; and AZT+meso-tetra(4-carboxyphenyl)porphine.

U937 cells = test: Toxicity for cells; assay type: cell-based; conditions: at the concentrations used
Source text: as §1

MT-2 cells = test: Toxicity for cells; assay type: cell-based; conditions: at the concentrations used
Source text: as §1

SMILES | Inhibitory activity ([1]; Table 1, reaction between HIV-1 gp120 and anti-V3 loop antibodies) | inhibition at 50 µg/mL ([1]; read-out: percentage of inhibition) [%] | EC50 (HIV-1; Human immunodeficiency virus 1, MT2, read-out: EC50 (concentration at which the production of P24 was reduced to 50% of that detected in control cultures)) [µg/mL] | inhibition at 40 µg/mL (HIV-1; Human immunodeficiency virus 1, MT2, read-out: percentage of inhibition of P24 nucleoprotein production) [%] | extent of inhibition of reaction between gp120 and anti-V3 antibodies versus antibody dilution ([1]; ATA 50 μg/ml, FIG. 3) | inhibition of attachment to gp120 of antibodies against the (303-338) segment ([1]; ATA 50 μg/ml, antisera 1:150, significant inhibition (FIG. 1A)) [%] | toxicity for H9 cells (H9 cells) | toxicity for U937 cells (U937 cells) | toxicity for MT-2 cells (MT-2 cells)
C=Cc1c(C)c2cc3nc(c(CC(=O)O)c4[nH]c(cc5nc(cc1[nH]2)C(C)=C5CC)c(C)c4C(=O)O)[C@@H](CCC(=O)O)[C@@H]3C [substance #149, chlorine e6] | + | 76.3 | 0.8 (≈ 1.34 µM) | 100 |  |  |  |  | 
O=C(O)C1=CC(=C(c2ccc(O)c(C(=O)O)c2)c2ccc(O)c(C(=O)O)c2)C=CC1=O [substance #122, aurintricarboxylic acid] |  |  |  |  | correlated with the dilution of antibodies | ≥ 22 | lack of toxicity | lack of toxicity | lack of toxicity
